ChEMBL document CHEMBL4699398, “The synthesis and biological evaluation of sanguinarine derivatives as anti-non-small cell lung cancer agents” (RSC Med Chem, 2020)

What was measured:
A549 = assay: Antiproliferative activity against human A549 cells assessed as inhibition of cell growth incubated for 72 hrs by CCK-8 assay; details: A549, 72 h
NCI-H1975 = assay: Antiproliferative activity against human H1975 cells assessed as inhibition of cell growth incubated for 72 hrs by CCK-8 assay; details: NCI-H1975, 72 h
HeLa = assay: Antiproliferative activity against human HeLa cells assessed as reduction in cell viability after 24 hrs by MTT assay; assay type: functional, cell-based

IC50 (A549) [nM] | IC50 (NCI-H1975) [nM] | IC50 (HeLa) [nM] | Structure (SMILES)
1460 | 960 |  | CC(C)NC1c2c(ccc3c2OCO3)-c2ccc3cc4c(cc3c2N1C)OCO4 (centres undefined)
1480 | 1000 |  | CCCNC1c2c(ccc3c2OCO3)-c2ccc3cc4c(cc3c2N1C)OCO4 (centres undefined)
1250 | 940 |  | CCNC1c2c(ccc3c2OCO3)-c2ccc3cc4c(cc3c2N1C)OCO4 (centres undefined)
1970 | 1570 |  | CN1c2c(ccc3cc4c(cc23)OCO4)-c2ccc3c(c2C1NC1CCCC1)OCO3 (centres undefined)
> 30000 | > 30000 |  | CCN1Cc2c(ccc3c2OCO3)-c2ccc3cc4c(cc3c21)OCO4
960 | 790 |  | CN1c2c(ccc3cc4c(cc23)OCO4)-c2ccc3c(c2C1C#N)OCO3 (centres undefined)
> 30000 | > 30000 |  | CC1c2c(ccc3c2OCO3)-c2ccc3cc4c(cc3c2N1C)OCO4 (centres undefined)

More lines, now with the values behind:

Structure (SMILES) | IC50 (A549) [nM] | IC50 (NCI-H1975) [nM] | IC50 (HeLa) [nM]
CCCN1Cc2c(ccc3c2OCO3)-c2ccc3cc4c(cc3c21)OCO4 | > 30000 | > 30000 | 
CN1c2c(ccc3cc4c(cc23)OCO4)-c2ccc3c(c2C1NCc1ccccc1)OCO3 (centres undefined) | 4350 | 3130 | 
COC1c2c(ccc3c2OCO3)-c2ccc3cc4c(cc3c2N1C)OCO4 (centres undefined) | 1590 | 1170 | 
c1cc2c(cnc3c4cc5c(cc4ccc23)OCO5)c2c1OCO2 | > 30000 | > 30000 | 
Cn1c(=O)c2c3c(ccc2c2ccc4cc5c(cc4c21)OCO5)OCO3 | > 30000 | > 30000 | 
CN1Cc2c(ccc3c2OCO3)-c2ccc3cc4c(cc3c21)OCO4 [DIHYDROSANGUINARINE] | > 30000 | 19100 | 
C[n+]1cc2c3c(ccc2c2ccc4cc5c(cc4c21)OCO5)OCO3 [SANGUINARIUM CHLORIDE] | 1590 | 1320 | 2430
